Assay results published in patent US9815851B2, “Pyrrolo carboxamides as modulators of orphan nuclear receptor RAR-related orphan receptor-gamma (RORγ, NR1F3) activity and for the treatment of chronic inflammatory and autoimmune diseases” (PHENEX PHARMACEUTICALS AG, priority 2011, dated 2017).
Where two headings read alike, the source gives them in different places.

Assays:
[1] = target: T1, RORγ ligand binding domain (LBD) (Homo sapiens, UniProt P51449); experiment: TR-FRET Activity Assay (ligand sensing, RORγ-LBD / coactivator peptide interaction, LANCE); format: biochemical
T1 construct: made in house; host or cells: E. coli BL-21 (BL3), vector pDEST15
T1 sequence (P51449 269-508 limits assumed): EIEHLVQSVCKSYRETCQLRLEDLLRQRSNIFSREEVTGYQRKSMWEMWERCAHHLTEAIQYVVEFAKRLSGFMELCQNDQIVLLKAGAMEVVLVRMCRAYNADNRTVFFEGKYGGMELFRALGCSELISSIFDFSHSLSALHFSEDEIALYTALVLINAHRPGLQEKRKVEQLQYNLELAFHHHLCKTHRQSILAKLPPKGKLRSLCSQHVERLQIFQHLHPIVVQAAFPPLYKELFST

RORγ = target: T2, RORγ (UniProt P51449); experiment: RORγ Gal4 Reporter Gene Assay in 293T cells (firefly and renilla luciferase); format: cell-based, human
T2 sequence (P51449 1-518): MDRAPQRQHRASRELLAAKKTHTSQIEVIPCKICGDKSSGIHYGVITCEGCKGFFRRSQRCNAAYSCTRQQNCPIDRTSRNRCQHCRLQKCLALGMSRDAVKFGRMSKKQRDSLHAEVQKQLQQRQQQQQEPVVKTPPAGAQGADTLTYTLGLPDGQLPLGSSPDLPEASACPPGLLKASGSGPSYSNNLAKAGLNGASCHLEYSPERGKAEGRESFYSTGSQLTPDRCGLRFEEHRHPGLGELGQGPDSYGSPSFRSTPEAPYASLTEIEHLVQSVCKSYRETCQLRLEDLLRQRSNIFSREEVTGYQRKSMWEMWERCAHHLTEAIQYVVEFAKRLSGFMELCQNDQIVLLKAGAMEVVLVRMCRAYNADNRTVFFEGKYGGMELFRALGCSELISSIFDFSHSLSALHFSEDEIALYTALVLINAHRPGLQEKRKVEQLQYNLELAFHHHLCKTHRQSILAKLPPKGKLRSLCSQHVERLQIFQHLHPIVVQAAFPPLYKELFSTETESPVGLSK

[2] = first value of the cell FRET/FF/REN, TR-FRET activity assay, read-out: pIC50 (FRET) (converted)
[3] = second value of the cell, Gal4 reporter gene assay in 293T cells, firefly luciferase
[4] = third value of the cell, Gal4 reporter gene assay in 293T cells, renilla normalised luciferase

Structure (SMILES) | IC50 [1, 2] [nM] | pIC50 (FF) (RORγ; [3]) | pIC50 (REN) (RORγ; [4]) | IC50 [1] [nM] | pIC50 (FF) (RORγ) | pIC50 (REN) (RORγ)
Cc1c(C(=O)NC2(C)CCOCC2)cc(-c2ccc(S(=O)(=O)NC(C)(C)C)c(C(C)(C)C)c2)n1CC1CCCCC1 [17/206] |  |  |  | 631 | 6.2/7.0/7.2 | 6.2/7.0/7.2
Cc1c(C(=O)NC2CC23CCOCC3)cc(-c2ccc(S(=O)(=O)NC(C)(C)C)c(C(C)(C)C)c2)n1CC1CCCCC1 (stereo not drawn) [17/207] | 501 | 7.9 | 8.0 |  |  | 
Cc1c(C(=O)NC2(C#N)CCOCC2)cc(-c2ccc(S(=O)(=O)NC(C)(C)C)c(C(C)(C)C)c2)n1CC1CCCCC1 [17/208] |  |  |  | 398 | 6.4/6.6/6.6 | 6.4/6.6/6.6
Cc1c(C(=O)NC2(C)CCOCC2)cc(-c2ccc(S(=O)(=O)NC(C)(C)C)c(C(F)(F)F)c2)n1CC1CCCCC1 [17/209] |  |  |  | 200 | 6.7/7.3/7.6 | 6.7/7.3/7.6
Cc1c(C(=O)NC2CC23CCOCC3)cc(-c2ccc(S(=O)(=O)NC(C)(C)C)c(C(F)(F)F)c2)n1CC1CCCCC1 (stereo not drawn) [17/210] | 158 | 7.9 | 8.1 |  |  | 
Cc1c(C(=O)N2CC3(CCOCC3)C2)cc(-c2ccc(S(=O)(=O)NC(C)(C)C)c(C(F)(F)F)c2)n1CC1CCCCC1 [17/211] | 501 | 8.0 | 8.0 |  |  | 
Cc1c(C(=O)NC2CCOCC2)cc(-c2ccc(S(=O)(=O)NC(C)(C)C)c(C(C)(C)C)c2)n1CC1CCCC1 [17/212] |  |  |  | 631 | 6.2/7.3/7.4 | 6.2/7.3/7.4
Cc1c(C(=O)NC2CCOCC2)cc(-c2ccc(S(=O)(=O)NC(C)(C)C)c(C(C)(C)C)c2)n1CC1CCC1 [17/213] |  |  |  | 631 | 6.2/7.1/7.2 | 6.2/7.1/7.2
Cc1c(C(=O)NC2CCOCC2)cc(-c2ccc(S(=O)(=O)NC(C)(C)C)c(C(F)(F)F)c2)n1CC1CCCC1 [17/214] | 251 | 7.5 | 7.5 |  |  | 
Cc1c(C(=O)NC2CCOCC2)cc(-c2ccc(S(=O)(=O)NC(C)(C)C)c(C(F)(F)F)c2)n1CC1CCC1 [17/215] | 316 | 7.5 | 7.3 |  |  | 
Cc1c(C(=O)NC2CCOCC2)cc(-c2cc(Cl)cc(C(=O)NC(C)(C)C)c2)n1CC1CCCCC1 [17/219] | 501 | 6.9 | 7.0 |  |  | 
Cc1c(C(=O)N2CCCC(C)(C(=O)O)C2)cc(-c2ccc(S(=O)(=O)NC(C)(C)C)c(C(F)(F)F)c2)n1CC1CCCCC1 (stereo not drawn) [17/225] | 794 | 7.6 | 7.6 |  |  | 
Cc1c(C(=O)NC2CCOCC2)cc(-c2ccc(S(=O)(=O)NC(C)(C)C)c(C(C)C)c2)n1CC1CCCCC1 [17/226] | 316 | 8.2 | 8.2 |  |  | 
Cc1c(C(=O)NC2CCOCC2)cc(-c2ccc(S(=O)(=O)NC3(C)CC3)c(C(C)(C)C)c2)n1CC1CCCCC1 [17/227] |  |  |  | 501 | 6.3/8.1/8.1 | 6.3/8.1/8.1
Cc1c(C(=O)NC2CCOCC2)cc(-c2ccc(S(=O)(=O)NC(C)(C)C)c(C(F)(F)F)c2F)n1CC1CCCCC1 [17/231] | 251 | 7.5 | 7.7 |  |  | 
Cc1cc(-c2cc(C(=O)NC3CCOCC3)c(C)n2CC2CCCCC2)cc(C(F)(F)F)c1S(=O)(=O)NC(C)(C)C [17/232] |  |  |  | 794 | 6.1/6.8/7.0 | 6.1/6.8/7.0
Cc1cc(S(=O)(=O)NC(C)(C)C)c(C(F)(F)F)cc1-c1cc(C(=O)NC2CCOCC2)c(C)n1CC1CCCCC1 [17/233] |  |  |  | 1580 | 5.8/6.5/6.5 | 5.8/6.5/6.5
Cc1c(C(=O)NC2CCOCC2)cc(-c2ccc(S(=O)(=O)NC(C)(C)C)cc2)n1CC1CCCCC1 [17/237] | 1260 | 6.5 | 6.5 |  |  | 
Cc1c(C(=O)NC2CCOCC2)cc(-c2ccc(NS(=O)(=O)C(C)(C)C)c(C(F)(F)F)c2)n1CC1CCCCC1 [17/247] | 1260 | 6.9 | 7.0 |  |  | 

More lines, main results first:

IC50 [1, 2] [nM] | pIC50 (FF) (RORγ; [3]) | pIC50 (REN) (RORγ; [4]) | Structure (SMILES) | IC50 [1] [nM] | pIC50 (FF) (RORγ) | pIC50 (REN) (RORγ)
200 | 7.8 | 7.8 | CCC(C)(C)NS(=O)(=O)c1ccc(-c2cc(C(=O)NC3CCOCC3)c(C)n2CC2CCCC2)cc1C(F)(F)F [17/216] |  |  | 
126 | 7.6 | 7.7 | CCC(C)(C)NS(=O)(=O)c1ccc(-c2cc(C(=O)NC3CCOCC3)c(C)n2CC2CCC2)cc1C(F)(F)F [17/217] |  |  | 
316 | 7.1 | 7.3 | Cc1c(C(=O)NC2CCOCC2)cc(-c2ccc(S(=O)(=O)NC(C)(C)C)c(C(F)(F)F)c2)n1S(=O)(=O)C1CCCCC1 [17/218] |  |  | 
316 | 6.6 | 6.6 | Cc1c(C(=O)N[C@H]2C[C@H](C(=O)O)C2)cc(-c2ccc(S(=O)(=O)NC(C)(C)C)c(C(F)(F)F)c2)n1CC1CCCCC1 [17/220] |  |  | 
2000 | 7.1 | 7.1 | Cc1c(C(=O)N[C@H]2C[C@H](C(=O)O)C2)cc(-c2ccc(S(=O)(=O)NC(C)(C)C)c(C(C)(C)C)c2)n1CC1CCCCC1 [17/221] |  |  | 
631 | 7.4 | 7.5 | Cc1c(C(=O)NCCC(C)(C)C(=O)O)cc(-c2ccc(S(=O)(=O)NC(C)(C)C)c(C(F)(F)F)c2)n1CC1CCCCC1 [17/222] |  |  | 
398 | 7.1 | 7.2 | Cc1c(C(=O)N[C@H]2CC[C@H](C(=O)O)CC2)cc(-c2ccc(S(=O)(=O)NC(C)(C)C)c(C(F)(F)F)c2)n1CC1CCCCC1 [17/223] |  |  | 
794 | 7.1 | 7.2 | Cc1c(C(=O)N2CCC(C)(C(=O)O)CC2)cc(-c2ccc(S(=O)(=O)NC(C)(C)C)c(C(F)(F)F)c2)n1CC1CCCCC1 [17/224] |  |  | 
398 | 7.7 | 7.7 | Cc1c(C(=O)NC2CCOCC2)cc(-c2ccc(S(=O)(=O)NC3CCC3)c(C(C)(C)C)c2)n1CC1CCCCC1 [17/228] |  |  | 
631 | 7.2 | 7.3 | Cc1c(C(=O)NC2CCOCC2)cc(-c2cc(F)c(S(=O)(=O)NC(C)(C)C)c(C(F)(F)F)c2)n1CC1CCCCC1 [17/229] |  |  | 
251 | 7.5 | 7.6 | Cc1c(C(=O)NC2CCOCC2)cc(-c2cc(C(F)(F)F)c(S(=O)(=O)NC(C)(C)C)cc2F)n1CC1CCCCC1 [17/230] |  |  | 
200 | 7.1 | 7.2 | Cc1c(C(=O)NC2CCOCC2)cc(-c2ccc(S(=O)(=O)NC(C)(C)C)c(Cl)c2)n1CC1CCCCC1 [17/234] |  |  | 
200 | 7.6 | 7.6 | Cc1c(C(=O)NC2CCOCC2)cc(-c2cc(Cl)c(S(=O)(=O)NC(C)(C)C)c(Cl)c2)n1CC1CCCCC1 [17/235] |  |  | 
631 | 8.1 | 8.2 | Cc1c(C(=O)NC2CCOCC2)cc(-c2ccc(S(=O)(=O)NC(C)(C)C)c3ccccc23)n1CC1CCCCC1 [17/236] |  |  | 
1000 | 6.9 | 6.7 | Cc1c(C(=O)NC2CCOCC2)cc(-c2ccc(S(=O)(=O)NC(C)(C)C)c(F)c2)n1CC1CCCCC1 [17/238] |  |  | 
1000 | 7.9 | 8.1 | Cc1c(C(=O)NCC2(O)CCOCC2)cc(-c2ccc(S(=O)(=O)NC(C)(C)C)c3ccccc23)n1CC1CCCCC1 [17/239] |  |  | 
794 | 7.5 | 7.6 | Cc1c(C(=O)N[C@H]2C[C@H](C(=O)O)C2)cc(-c2ccc(S(=O)(=O)NC(C)(C)C)c3ccccc23)n1CC1CCCCC1 [17/240] |  |  | 
1260 | 7.7 | 7.8 | Cc1c(C(=O)NCCC(C)(C)C(=O)O)cc(-c2ccc(S(=O)(=O)NC(C)(C)C)c3ccccc23)n1CC1CCCCC1 [17/241] |  |  | 
398 | 7.5 | 7.6 | Cc1c(C(=O)NC2CCOCC2)cc(-c2ccc(S(=O)(=O)NC(C)(C)C)c3ccccc23)n1CC1CCC1 [17/242] |  |  | 
631 | 7.4 | 7.6 | Cc1c(C(=O)NCC2(O)CCOCC2)cc(-c2ccc(S(=O)(=O)NC(C)(C)C)c3ccccc23)n1CC1CCC1 [17/243] |  |  | 
> 20000 | 5.7 | 5.7 | Cc1c(C(=O)NC2CCOCC2)cc(-c2ccc(S(=O)(=O)NC(C)(C)C)c(C(F)(F)F)n2)n1CC1CCCCC1 [17/245] |  |  | 
3980 | 6.1 | 6.2 | Cc1c(C(=O)NCC2CC(C(=O)O)C2)cc(-c2cc(C(C)(C)O)cc(C3(C)CC3)c2)n1CC1CCCCC1 (stereo not drawn) [17/246] |  |  | 
